Measurements taken from patent publication US20090318396A1, “CORTICOSTEROID LINKED BETA-AGONIST COMPOUNDS FOR USE IN THERAPY” (priority 2008, published 2009).

Experiments:
[1] = test system: tobacco-smoke-induced airway inflammation; assay: Tobacco smoke model of airway inflammation in mice; type: in vivo, female C3H mice; conditions: mean ± s.e.m.
Method: Vehicle and test articles are delivered by intratracheal instillation in 10% ethanol water to animals anesthetized with 3-5% isoflurane (n=8 animals per test article group). All compounds will be delivered on a daily (5 days per week) schedule for 3 weeks during the smoke exposures. Mice were exposed to cigarette smoke for 6 hours per day, 5 days per week for 3 weeks, in H1000 or H2000 chambers. Type 2R4F research cigarettes (Kentucky Tobacco Research and Development Center) were used in the study. Total particulate material (TPM) exposure was kept at […] for the first week to allow animals to reduce adverse effects during adaptation to smoke exposure. TPM exposure was maintained between 100 and 250 mg TPM/m^3 during the remainder of the study. After 3 weeks, animals were euthanized and bronchoalveolar lavage fluid was obtained for cell differentials and cytokine analysis by Luminex multiplex immunoassay.

[2] = test system: ragweed-induced bronchoconstriction; assay: Ragweed-induced bronchoconstriction in dogs; type: in vivo, beagle dogs; conditions: mean ± s.e.m.
Method: The compound of Example 52 was assesed for bronchodilator activity in a ragweed-induced bronchoconstriction model in beagle dogs. Dogs were mechanically ventilated during each experiment. Airflow and tidal volume were measured using a differential pressure transducer located in front of the endotracheal tube. An esophageal balloon catheter placed in the esophagus was used to determine transpulmonary pressure. Pulmonary resistance and dynamic lung compliance were calculated from the simultaneous measurement of transpulmonary pressure and respiratory flow. The canine exposure system was designed to expose an anesthetized animal via an intubation tube. Dogs were administered vehicle or test article by inhalation 30 minutes before ragweed antigen exposure (n=4). Dogs were challenged with ragweed antigen (ragweed short, Ambrosia artemisifolia, Greer, Lenoir, N.C.) by inhalation (5 breaths). Immediately following ragweed challenge, changes in pulmonary resistance and compliance were measured for up to 30 minutes.

[3] = test system: ovalbumin-induced lung inflammation; assay: Mouse ovalbumin model of lung inflammation; type: in vivo, Mice (Balb/c); conditions: 3.0 mg/kg IT, 1x/day day 14 and 15; mouse OVA
Method: Mice (Balb/c) were immunized by intraperitoneal injection of ovalbumin (10 μg OVA suspended in 2 mg aluminum hydroxide) on day 0 and 7. One group was sensitized and treated with vehicle (NSV). One group was immunized with sterile water only and treated with vehicle, e.g. to serve as a nonsensitized (negative) control (Vehicle). […] On days 14 and 15, the animals were exposed to OVA by inhalation (3 h; 5 mg/m^3). Forty eight hours following the last OVA challenge (day 17) mice were sacrificed. Bronchoalveolar lavage (BAL) was taken from each animal to collect cells and fluid. Cell numbers and differentials were calculated from BAL.

[4] = test system: LPS-induced airway inflammation; assay: LPS-induced airway inflammation in rats; type: in vivo, Male Fischer 344 rats
Method: Example 52 was evaluated in an LPS-induced airway inflammation model in rats. Male Fischer 344 rats (n 8/group) were treated with either vehicle or test article by intratracheal instillation in […] volume 1 hour prior to LPS challenge. Animals were then exposed to LPS by nose-only inhalation exposure for 10 minutes at 5 mg/m^3 resulting in an estimated 5 μg lung deposition. Animals were sacrificed 4 hours after LPS exposure. Lungs were lavaged for bronchoalveolar lavage cell differentials and cytokine analysis by Luminex multiplex immunoassay.

[5] = Stability of steroid C-21 esters, carbonates and carbamates in rat lung homogenate; conditions: for Mean [Parent] (nM) at 2 hrs, 37° C.: parent compound; for Mean % compound remaining at 2 hrs, 37° C.: 900 nM, n=3
Method: Lungs from Fischer 344 rats were obtained fresh by overnight delivery at 4° C. from BioReclamation Inc. (Hicksville, N.Y.). Lungs were weighed and homogenized in a 1:3 w/v ratio with sterile phosphate buffered saline (PBS, 10 mM, pH 7.4) in glass vials on ice. After centrifugation at 3,000×g for 10 min at 4° C. the supernatant was decanted into sterile conical tubes and placed on ice. The total protein content of the supernatant was determined by the bicinchoninic acid (BCA) method (Pierce Biotechnology, Rockford, Ill.), using bovine serum albumin (BSA) as the standard. Lung homogenates were prepared to a final concentration of 1 mg total protein/mL in 10 mM PBS, pH 7.4.
Heat-inactivation was achieved by incubation at 80° C. for 30 min, after which the homogenate was allowed to cool to room temperature, stored overnight at 4° C. The homogenate was used for the assay and standard curve preparations. Before use, each homogenate preparation was equilibrated for 15 min in a 37° C. water bath. […] DMSO (2.7 uL) added to 3 mL of temperature-equilibrated homogenate served as a control. Aliquots (100 uL) of homogenate+compound were added to 400 μL quenching solution consisting of 100% HPLC-grade acetonitrile+500 ng/mL glyburide for the zero time point (n=3 for each time point).
The glyburide served as an internal LC/MS/MS standard. The remainder of each drug+homogenate solution was aliquoted into a 96-well tissue culture plates. After an additional 30 min and 120 min incubation at 37° C., 100 μL aliquots were added to 400 μL quenching solution. Denatured proteins in the quenching solution were separated by centrifugation at 3000×g for 2 min at 4° C., and 160 μL of the supernatants were transferred to new 96-well plate for analysis by LC/MS/MS. Collection plates were covered with plastic film and were kept on ice. For storage, covered plates were and kept stored at −80° C. until further use.
An aliquot of 50 μL of each sample was diluted with 50 μL of water containing internal standard at 4° C. The diluted samples were then centrifuged for 20 minutes at 3000 rpm at 4° C. An aliquot of 20 μL of the solution was injected into the TSQ Ultra Quantum.
LC/MS/MS system. The compounds were separated by HPLC using a HyPurity C18 HPLC column (30×2.1 mm, 5μ) from ThermoHypersil. A Multiplex LX-2 HPLC system (Cohesive Technologies, Franklin, Mass.) with two identical Agilent 1100 series binary pumps (P/N G1312A) were used for elution and separation. Samples were maintained at 4° C. in an HTS Pal autosampler (LEAP Technologies, Carrboro, N.C.) in order to reduce any potential spontaneous hydrolysis of the compounds before injection onto the HPLC. The analytes were eluted using the following mobile phases; Mobile phase A contained 1% acetonitrile in 10 mM ammonium formate aqueous solution with 1% formic acid. Mobile phase B contained 80% acetonitrile in 10 mM ammonium formate with 1% formic acid. The HPLC elution program used to elute the analytes was as follows:
The samples were further analyzed by tandem mass spectrometry using a TSQ Quantum Ultra triple quadrupole mass spectrometer (Thermo Finnigan, San Jose, Calif.) using a selective reaction monitoring (SRM) scan type. The mass spectrometry parameters used were as follows:
Nine-point standard curves for each test compound were prepared and analyzed in heat-inactivated lung homogenate. […] The data expressed in Table 2 represent the mean (n=3) percent remaining compound in both types of homogenate at 2 hours, 37° C.

[6] = test system: Ascaris suum antigen-induced bronchoconstriction and airway hyperreactivity; assay: Ascaris suum-induced pulmonary responses in sheep; type: in vivo; conditions: for Effect on late phase bronchoconstriction and development of airway hyperreactivity: duration of action regimen
Method: (§1) One breath unit is defined as one breath of a 1% w/v carbachol solution. Test article was administered either by a pre-dosing or duration of action protocol. In the pre-dosing regimen, animals were dosed once daily for four days, with the last dose administered 1 hr before antigen. In the duration of action regimen, animals were dosed once daily for four days, with the last dose administered 24 hours before antigen. Test article, Ascaris antigen, and carbachol were administered by nebulized aerosol to intubated sheep.

[7] = test system: carbachol-induced bronchoconstriction; assay: Carbachol-induced bronchoconstriction in sheep; type: in vivo; conditions: Example 52 4.7 mg, Salmeterol 2.5 mg, mean ± s.e.m, n=4
Method: as §1, with “Bronchoconstriction was evaluated” for “One breath unit is defined”, “a function” for “one breath”, “increased pulmonary resistance following” for “a 1% w/v”, “challenge. […]” for “solution.”, “carbachol challenge.” for “antigen.”, “article” for “article, Ascaris antigen,”

[8] = Drug levels in plasma, BALF and lung after IT administration in the rat
Method: Compounds of Examples 52 and 83 were formulated for intratracheal (IT) dosing in 10% EtOH, 90% Sterile Water, and dosed in male Sprague-Dawley rats at 3 mg/kg (Example 52) and 1 mg/kg (Example 83). Each dosing group consisted of 3 male, naïve purebred Sprague-Dawley rats. At dosing, the animals weighed ˜0.30 kg. The animals were fasted overnight prior to dose administration and up to 2 hr after dosing. The compounds were administered IT using a Penn Century Microsprayer (Model 1A-1B).
Blood samples were collected at 0.5, 2, and 4 hours post-dose. Each blood sample (0.5-0.6 mL per sample) was collected via the orbital sinus (following anesthesia for BAL procedure) into tubes containing EDTA anti-coagulant into containers surrounded by dry ice at 0.5, 2 and 4 hr (mean, n=6). Blood samples were stored at −20±5° C. until shipped for analysis.
The animals were anesthetized with an intramuscular (IM) injection of a ketamine/xylazine/acepromazine (80/10/2 mg/kg) cocktail at a dose volume of 1.1 mL/kg. A cannula (modified Bard® infant feeding tube) was inserted into the trachea. Warmed sterile saline was injected into the lungs. The lungs were gently massaged by palpation of the chest for approximately 45 seconds. The fluid (BALF) was recovered and placed on ice. The procedure was repeated two more times, and all three BALF samples pooled. The fluid was centrifuged under refrigerated conditions at 350 g for 10 minutes. The supernatant and cell pellet were collected and stored at approximately −70° C. until shipped for analysis.
Immediately following each BAL procedure, the lungs from each animal were removed, blotted dry, weighed, and stored frozen at −70° C. until shipped for analysis.
An LC/MS/MS method was used to measure the concentration of compound in plasma.
Add 3×w/v of 1×PBS buffer (90:10-PBS:ACN) to each lung tissue. Homogenize the sample w/Polytron (PT1200) and take 50 uL of supernatant and inject to LC/MSMS.
An aliquot of 50 μL of each plasma sample was treated with 100 mL of acetonitrile (ACN) containing internal standard. After the protein precipitation, an aliquot of 100 μL of the supernatant was transferred to a clean 96-well plate and mixed with 100 μL of water. An aliquot of 30 μL of the above solution was injected to the TSQ Ultra Quantum LC/MS/MS system.
A HyPurity C18 HPLC column (30×2.1 mm, 5μ) from ThermoHypersil (Part #: 22105-032130) was used. Mobile phase A contained 1% acetonitrile in 10 mM ammonium formate aqueous solution with 1% formic acid. Mobile phase B contained 80% acetonitrile in 10 mM ammonium formate with 1% formic acid. An Agilent 1100 series binary pump (P/N G1312A Bin Pump) was used for elution and separation. HTS Pal autosampler from LEAP Technologies, Carrboro, N.C. was used.
TSQ Quantum Ultra triple quadrupole mass spectrometer from Thermo Finnigan, San Jose, Calif. was used in selective reaction monitoring (SRM) operation mode, Tune file:

[9] = 0.51 mg/kg i.t. daily, 3 weeks smoke
[10] = 10 μg/kg by inhalation 30 minutes before ragweed, n=4
[11] = Inactive (heat-inactivated) rat lung homogenate
[12] = Duration of action regimen (last dose 24 hours before antigen), Post-Ascaris, Example 52 4.7 mg, ciclesonide 2.2 mg, salmeterol xinafoate 2.5 mg, n=4
[13] = Duration of action regimen, 1 hour, n=4
[14] = Duration of action regimen, 2 hours, n=4
[15] = Duration of action regimen, 3 hours, n=4
[16] = Duration of action regimen, 4 hours, n=4
[17] = Duration of action regimen, 5 hours, n=4
[18] = Duration of action regimen, 6 hours, n=4
[19] = Duration of action regimen, 6.5 hours, n=4
[20] = Duration of action regimen, 7 hours, n=4
[21] = Duration of action regimen, 7.5 hours, n=4
[22] = Duration of action regimen, 8 hours, n=4
[23] = Duration of action regimen, Baseline, Example 52 4.7 mg, ciclesonide 2.2 mg, salmeterol xinafoate 2.5 mg, n=4
[24] = Duration of action regimen, Post-Antigen, n=4
[25] = analyte after IT administration of Example 83, 1 mg/kg, 0.5 hr
[26] = analyte after IT administration of Example 83, 1 mg/kg, 2.0 hr
[27] = analyte after IT administration of Example 83, 1 mg/kg, 4.0 hr

CC(C)C(=O)OCC(=O)[C@@]12O[C@H](C3CCCCC3)O[C@@H]1C[C@H]1[C@@H]3CCC4=CC(=O)C=C[C@]4(C)[C@H]3[C@@H](O)C[C@@]12C [Ciclesonide, ciclesonide]
IL-1α ([1]; 0.31 mg/kg i.t.): 5.25 ± 0.85 pg/mL | MIP-1α ([1]; 0.31 mg/kg i.t.): 8.31 ± 1.17 pg/mL | Neutrophils ([1]; 0.31 mg/kg i.t.): 13.9 ± 2.1 ×10^4/ml | IL-1α [1, 9]: 5.50 ± 0.96 pg/mL | MIP-1α [1, 9]: 10.02 ± 1.75 pg/mL | Neutrophils [1, 9]: 15.0 ± 1.5 ×10^4/ml | Pulmonary Resistance (% of Baseline) [2, 10]: 302.3 ± 24.8 % of Baseline | Eosinophils in BAL, Mean [3]: 60170 mL⁻¹ | Neutrophils in BAL, Mean [3]: 4790 mL⁻¹ | Neutrophils ([4]; 3 mg/kg intratracheal, 1 hour prior to LPS, rat BAL, mean ± s.e.m.): 9.7 ± 0.89 × 10^4/ml | TNFα ([4]; 3 mg/kg intratracheal, rat BAL, mean ± s.e.m.): 629.2 ± 330.0 pg/mL | Inhibition of LPS-induced airway inflammation measured as neutrophil influx and TNFα production ([4]; at doses tested, versus vehicle control): significantly inhibit | Mean [Parent] (nM) at 2 hrs, 37° C. ([5]; Active homogenate): 18 nM | Mean % compound remaining at 2 hrs, 37° C. ([5]; Active rat lung homogenate): 12% | Mean % compound remaining at 2 hrs, 37° C. [5, 11]: 88% | Mean [Parent] (nM) at 2 hrs, 37° C. ([5]; Inactive homogenate): 154 nM | Bronchoconstriction, Lung Resistance (% Increase) [6, 12]: 416 % Increase | Bronchoconstriction, Lung Resistance (% Increase) [6, 13]: 224 % Increase | Bronchoconstriction, Lung Resistance (% Increase) [6, 14]: 146 % Increase | Bronchoconstriction, Lung Resistance (% Increase) [6, 15]: 69 % Increase | Bronchoconstriction, Lung Resistance (% Increase) [6, 16]: 21 % Increase | Bronchoconstriction, Lung Resistance (% Increase) [6, 17]: 44 % Increase | Bronchoconstriction, Lung Resistance (% Increase) [6, 18]: 66 % Increase | Bronchoconstriction, Lung Resistance (% Increase) [6, 19]: 71 % Increase | Bronchoconstriction, Lung Resistance (% Increase) [6, 20]: 65 % Increase | Bronchoconstriction, Lung Resistance (% Increase) [6, 21]: 62 % Increase | Bronchoconstriction, Lung Resistance (% Increase) [6, 22]: 50 % Increase | Hyperreactivity PC400 [6, 23]: 28.3 carbachol breath units | Hyperreactivity PC400 [6, 24]: 21.5 carbachol breath units | Bronchoconstriction, Lung Resistance (% Increase) ([6]; Predosing regimen (last dose 1 hr before antigen), Post-Ascaris, Example 52 4.7 mg, ciclesonide 2.2 mg, n=2): 305 % Increase | Bronchoconstriction, Lung Resistance (% Increase) ([6]; Predosing regimen, 1 hour, n=2): 142 % Increase | Bronchoconstriction, Lung Resistance (% Increase) ([6]; Predosing regimen, 2 hours, n=2): 44 % Increase | Bronchoconstriction, Lung Resistance (% Increase) ([6]; Predosing regimen, 3 hours, n=2): 8 % Increase | Bronchoconstriction, Lung Resistance (% Increase) ([6]; Predosing regimen, 4 hours, n=2): 6 % Increase | Bronchoconstriction, Lung Resistance (% Increase) ([6]; Predosing regimen, 5 hours, n=2): 14 % Increase | Bronchoconstriction, Lung Resistance (% Increase) ([6]; Predosing regimen, 6 hours, n=2): 28 % Increase | Bronchoconstriction, Lung Resistance (% Increase) ([6]; Predosing regimen, 6.5 hours, n=2): 12 % Increase | Bronchoconstriction, Lung Resistance (% Increase) ([6]; Predosing regimen, 7 hours, n=2): 28 % Increase | Bronchoconstriction, Lung Resistance (% Increase) ([6]; Predosing regimen, 7.5 hours, n=2): 33 % Increase | Bronchoconstriction, Lung Resistance (% Increase) ([6]; Predosing regimen, 8 hours, n=2): 15 % Increase | Hyperreactivity PC400 ([6]; Predosing regimen, Baseline, Example 52 4.7 mg, ciclesonide 2.2 mg, n=2): 26.5 carbachol breath units | Hyperreactivity PC400 ([6]; Predosing regimen, Post-Antigen (24 hours after challenge), n=2): 25.5 carbachol breath units | Effect on late phase bronchoconstriction and development of airway hyperreactivity [6]: reduced efficacy

CCN(CC)Cc1ccc(C(=O)OCC(=O)[C@@]23O[C@H](C4CCCCC4)O[C@@H]2C[C@H]2[C@@H]4CCC5=CC(=O)C=C[C@]5(C)[C@H]4[C@@H](O)C[C@@]23C)cc1 [Example 30, 4-Diethylaminomethylbenzoic acid [[11β,16α]-[[((R)-cyclohexylmethylene)bis(oxy)]-11-hydroxypregna-1,4-diene-3,20-dion-21-yl]]ester]
melting point: 123.5 °C (dec.) | Mean [Parent] (nM) at 2 hrs, 37° C. ([5]; Active homogenate): 102 nM | Mean % compound remaining at 2 hrs, 37° C. ([5]; Active rat lung homogenate): 46% | Mean % compound remaining at 2 hrs, 37° C. [5, 11]: 51% | Mean [Parent] (nM) at 2 hrs, 37° C. ([5]; Inactive homogenate): 109 nM

OCc1cc(C(O)CNCCCCCCOCCCCc2ccccc2)ccc1O (stereo not drawn) [Salmeterol Xinafoate, salmeterol xinafoate]
IL-1α ([1]; 0.57 mg/kg i.t.): 4.22 ± 0.73 pg/mL | MIP-1α ([1]; 0.57 mg/kg i.t.): 6.09 ± 1.38 pg/mL | Neutrophils ([1]; 0.57 mg/kg i.t.): 10.9 ± 2.5 ×10^4/ml | Pulmonary Resistance (% of Baseline) ([2]; 3 μg/kg by inhalation): 265.6 ± 38.8 % of Baseline | Pulmonary Resistance (% of Baseline) [2, 10]: 177.8 ± 14.4 % of Baseline | Bronchoconstriction, Lung Resistance (% Increase) [6, 12]: 370 % Increase | Bronchoconstriction, Lung Resistance (% Increase) [6, 13]: 213 % Increase | Bronchoconstriction, Lung Resistance (% Increase) [6, 14]: 114 % Increase | Bronchoconstriction, Lung Resistance (% Increase) [6, 15]: 64 % Increase | Bronchoconstriction, Lung Resistance (% Increase) [6, 16]: 25 % Increase | Bronchoconstriction, Lung Resistance (% Increase) [6, 17]: 54 % Increase | Bronchoconstriction, Lung Resistance (% Increase) [6, 18]: 86 % Increase | Bronchoconstriction, Lung Resistance (% Increase) [6, 19]: 85 % Increase | Bronchoconstriction, Lung Resistance (% Increase) [6, 20]: 83 % Increase | Bronchoconstriction, Lung Resistance (% Increase) [6, 21]: 76 % Increase | Bronchoconstriction, Lung Resistance (% Increase) [6, 22]: 72 % Increase | Hyperreactivity PC400 [6, 23]: 29.5 carbachol breath units | Hyperreactivity PC400 [6, 24]: 22.8 carbachol breath units

OCc1cc(C(O)CNCCCCCCOCCCCc2ccccc2)ccc1O (stereo not drawn) [salmeterol]
Lung Resistance (% Increase) at 2% Carbachol ([7]; Duration of action regimen (last dose 24 hours before carbachol), Ciclesonide 2.2 mg + Salmeterol Xinafoate 2.5 mg): 594 ± 56 % Increase | Lung Resistance (% Increase) at 2% Carbachol ([7]; Predosing regimen (last dose 1 hr before carbachol)): 352 ± 27 % Increase | Plasma Conc ([8]; analyte after IT administration of Example 52, 3 mg/kg, 0.5 hr): BLQ | Plasma Conc ([8]; analyte after IT administration of Example 52, 3 mg/kg, 2.0 hr): BLQ | Plasma Conc ([8]; analyte after IT administration of Example 52, 3 mg/kg, 4.0 hr): BLQ | BALF Conc [8, 25]: BLQ | Plasma Conc [8, 25]: BLQ | BALF Conc [8, 26]: BLQ | Plasma Conc [8, 26]: BLQ | BALF Conc [8, 27]: BLQ | Plasma Conc [8, 27]: BLQ | Effect on late phase bronchoconstriction and development of airway hyperreactivity [6]: reduced efficacy
